Results published in US9309242B2, “Substituted pyrido[2,3-b]pyrazines as FGFR kinase inhibitors” (priority 2011, dated 2016).
Where two headings read alike, the source gives them in different places.

How the values were obtained:
FGFR1 (h) = FGFR1 (h) (Homo sapiens, UniProt P11362); experiment: FGFR1 (enzymatic assay), TR-FRET; assay type: biochemical; details: average values if tested multiple times, read-out: FGFR 1 pIC50 (converted)
FGFR2 (h) = FGFR2 (h) (Homo sapiens, UniProt P21802); experiment: FGFR2 (enzymatic assay), TR-FRET; assay type: biochemical; details: enzymatic assay; average values if tested multiple times; read-out: FGFR 2 pIC50 (converted)
Sequence of FGFR2 (h) (P21802 22-821): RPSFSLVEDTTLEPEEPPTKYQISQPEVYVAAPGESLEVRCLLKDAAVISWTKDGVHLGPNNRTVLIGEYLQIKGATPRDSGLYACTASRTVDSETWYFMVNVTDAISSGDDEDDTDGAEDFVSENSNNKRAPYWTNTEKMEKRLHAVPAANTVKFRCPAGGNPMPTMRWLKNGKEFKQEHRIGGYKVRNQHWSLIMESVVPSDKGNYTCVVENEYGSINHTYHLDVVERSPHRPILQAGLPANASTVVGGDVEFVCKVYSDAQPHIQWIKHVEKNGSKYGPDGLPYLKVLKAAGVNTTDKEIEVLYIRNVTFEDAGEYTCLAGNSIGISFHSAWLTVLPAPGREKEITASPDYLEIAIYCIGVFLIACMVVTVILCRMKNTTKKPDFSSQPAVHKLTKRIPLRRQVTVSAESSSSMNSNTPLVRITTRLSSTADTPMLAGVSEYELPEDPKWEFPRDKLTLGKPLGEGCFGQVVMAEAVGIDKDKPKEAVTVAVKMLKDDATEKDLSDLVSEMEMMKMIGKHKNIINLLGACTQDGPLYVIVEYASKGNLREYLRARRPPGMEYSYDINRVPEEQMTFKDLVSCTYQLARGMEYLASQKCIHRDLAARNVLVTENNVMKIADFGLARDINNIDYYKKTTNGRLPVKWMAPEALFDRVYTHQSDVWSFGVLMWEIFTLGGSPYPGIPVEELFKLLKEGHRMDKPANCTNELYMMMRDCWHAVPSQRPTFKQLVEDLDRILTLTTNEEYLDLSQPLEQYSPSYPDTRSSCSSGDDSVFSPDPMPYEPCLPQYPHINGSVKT
Summary of the method: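 hFGFR2 150 ng/ml; Btn-Flt3 500 nM; ATP 0.4 μM; 50 mM HEPES pH 7.5, 6 mM MnCl2, 1 mM DTT, 0.1 mM Na3VO4, 0.01% Triton-X-100; 1% DMSO final.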

FGFR4 (h) = FGFR4 (h) (Homo sapiens, UniProt P22455); experiment: FGFR4 (enzymatic assay), TR-FRET; assay type: biochemical; details: FGFR 4 pIC50, enzymatic assay; average values if tested multiple times
Sequence of FGFR4 (h) (P22455 22-802): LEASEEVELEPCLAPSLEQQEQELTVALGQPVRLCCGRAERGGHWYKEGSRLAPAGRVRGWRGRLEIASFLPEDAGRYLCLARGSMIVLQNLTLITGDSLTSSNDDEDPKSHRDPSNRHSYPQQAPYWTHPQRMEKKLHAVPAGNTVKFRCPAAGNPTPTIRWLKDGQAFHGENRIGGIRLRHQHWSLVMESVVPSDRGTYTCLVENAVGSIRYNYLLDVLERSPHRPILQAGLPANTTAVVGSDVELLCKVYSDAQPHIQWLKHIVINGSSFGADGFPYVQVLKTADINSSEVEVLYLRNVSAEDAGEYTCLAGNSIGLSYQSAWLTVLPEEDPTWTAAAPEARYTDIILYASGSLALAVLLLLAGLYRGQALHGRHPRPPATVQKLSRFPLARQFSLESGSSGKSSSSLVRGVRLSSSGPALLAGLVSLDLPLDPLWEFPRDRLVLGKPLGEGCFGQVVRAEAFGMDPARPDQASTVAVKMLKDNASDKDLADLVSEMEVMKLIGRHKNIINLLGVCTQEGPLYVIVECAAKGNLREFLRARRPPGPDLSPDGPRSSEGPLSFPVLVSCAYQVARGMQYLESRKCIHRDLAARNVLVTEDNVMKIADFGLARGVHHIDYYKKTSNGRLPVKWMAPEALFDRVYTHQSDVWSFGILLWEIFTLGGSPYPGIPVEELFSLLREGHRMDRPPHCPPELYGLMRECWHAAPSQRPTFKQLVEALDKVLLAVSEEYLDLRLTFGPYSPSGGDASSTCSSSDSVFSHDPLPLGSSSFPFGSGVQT

[1] = target: T1, Ba/F3-FGFR1-transfected cells (Homo sapiens, UniProt P11362); experiment: Ba/F3-FGFR1 (minus IL3) cellular proliferation assay, Alamar Blue; assay type: cell-based
T1 construct: BAF3-FGFR1 (MIN IL3) pIC50; other: minus IL3
T1 sequence (P11362 whole entry, change not shown): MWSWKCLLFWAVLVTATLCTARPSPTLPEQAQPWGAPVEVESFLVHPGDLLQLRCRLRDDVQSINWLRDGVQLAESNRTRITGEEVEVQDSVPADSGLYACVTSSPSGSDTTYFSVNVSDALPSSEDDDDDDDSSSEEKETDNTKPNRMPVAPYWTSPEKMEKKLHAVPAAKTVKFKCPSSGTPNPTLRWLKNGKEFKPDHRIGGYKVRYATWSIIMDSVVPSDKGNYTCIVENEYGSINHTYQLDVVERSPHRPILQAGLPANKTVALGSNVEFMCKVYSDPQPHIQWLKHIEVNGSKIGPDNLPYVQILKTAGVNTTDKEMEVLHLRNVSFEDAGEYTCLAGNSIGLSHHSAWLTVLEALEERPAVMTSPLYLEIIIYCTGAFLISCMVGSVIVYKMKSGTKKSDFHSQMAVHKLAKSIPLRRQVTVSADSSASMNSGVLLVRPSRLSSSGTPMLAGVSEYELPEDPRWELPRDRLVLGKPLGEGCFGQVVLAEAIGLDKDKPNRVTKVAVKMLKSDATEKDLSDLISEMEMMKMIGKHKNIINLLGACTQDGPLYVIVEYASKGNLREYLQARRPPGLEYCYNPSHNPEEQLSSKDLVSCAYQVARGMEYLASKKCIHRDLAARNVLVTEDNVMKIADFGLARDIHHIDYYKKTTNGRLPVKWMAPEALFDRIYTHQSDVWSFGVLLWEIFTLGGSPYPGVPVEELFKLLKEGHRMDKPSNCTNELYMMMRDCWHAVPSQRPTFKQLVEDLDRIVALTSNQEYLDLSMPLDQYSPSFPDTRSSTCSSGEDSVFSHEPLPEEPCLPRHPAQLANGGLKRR
Summary of the method: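 Ba/F3-FGFR1 cells, 20000/well, RPMI-1640 + 10% FBS + 2 mM L-Gln; compound in DMSO; 24 h, 37 °C, 5% CO2; Alamar Blue 4 h; RFU ex 540/em 590.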

[2] = tested on: Ba/F3-FGFR1-transfected cells; experiment: Ba/F3-FGFR1 (plus IL3) cellular proliferation assay, counterscreen with 10 ng/ml murine IL3; assay type: cell-based; details: read-out: BAF3-FGFR1 (PLUS IL3) pIC50 (converted)
Summary of the method: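 Proliferation read-out: resazurin-based Alamar Blue fluorescence (540/590 nm) after 4 h, following 24 h compound treatment of 20000 Ba/F3-FGFR1 cells per well in 10% FBS RPMI at 37° C. IL3 counterscreen used the same protocol plus 10 ng/ml murine IL3.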

[3] = target: T2, Ba/F3-FGFR3-transfected cells (Homo sapiens, UniProt P22607); experiment: Ba/F3-FGFR3 (minus IL3) cellular proliferation assay, Alamar Blue; assay type: cell-based
T2 construct: BAF3-FGFR3 (MIN IL3) pIC50; other: minus IL3
T2 sequence (P22607 whole entry, change not shown): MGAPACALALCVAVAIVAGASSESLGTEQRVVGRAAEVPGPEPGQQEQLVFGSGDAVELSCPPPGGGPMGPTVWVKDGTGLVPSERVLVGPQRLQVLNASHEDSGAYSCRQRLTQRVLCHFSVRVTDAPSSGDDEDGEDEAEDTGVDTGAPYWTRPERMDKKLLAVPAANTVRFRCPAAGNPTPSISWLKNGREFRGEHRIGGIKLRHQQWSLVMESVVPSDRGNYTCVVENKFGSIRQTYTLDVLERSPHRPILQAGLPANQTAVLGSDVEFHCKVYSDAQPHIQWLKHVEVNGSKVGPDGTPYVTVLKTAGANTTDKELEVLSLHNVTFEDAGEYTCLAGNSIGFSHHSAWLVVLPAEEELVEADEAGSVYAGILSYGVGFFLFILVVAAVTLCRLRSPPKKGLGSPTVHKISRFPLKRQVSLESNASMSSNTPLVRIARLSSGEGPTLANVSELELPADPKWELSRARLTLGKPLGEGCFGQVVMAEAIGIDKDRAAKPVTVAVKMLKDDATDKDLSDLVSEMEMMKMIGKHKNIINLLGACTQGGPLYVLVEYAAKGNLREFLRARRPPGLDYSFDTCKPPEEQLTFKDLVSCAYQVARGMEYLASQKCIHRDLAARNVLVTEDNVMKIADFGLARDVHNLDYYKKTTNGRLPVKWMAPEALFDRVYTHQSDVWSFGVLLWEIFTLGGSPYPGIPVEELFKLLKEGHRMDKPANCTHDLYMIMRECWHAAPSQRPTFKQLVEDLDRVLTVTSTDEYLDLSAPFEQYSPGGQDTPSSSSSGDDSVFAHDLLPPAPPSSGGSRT
Summary of the method: (§1)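 FGFR3-Ba/F3, 20000 cells/well, RPMI-1640 + 10% FBS, no phenol red; cpd in DMSO; 24 h, 37° C/5% CO2. Alamar Blue 4 h, RFU ex540/em590. Counterscreen: + murine IL3 10 ng/ml.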

[4] = tested on: Ba/F3-FGFR3-transfected cells; experiment: Ba/F3-FGFR3 (plus IL3) cellular proliferation assay, counterscreen with 10 ng/ml murine IL3; assay type: cell-based; details: read-out: BAF3-FGFR3 (PLUS IL3) pIC50 (converted)
Summary of the method: as §1

[5] = target: T3, Ba/F3-KDR-transfected cells (Homo sapiens, UniProt P35968); experiment: Ba/F3-KDR (minus IL3) cellular proliferation assay, Alamar Blue; assay type: cell-based
T3 construct: BAF3-KDR (MIN IL3) pIC50; other: minus IL3
T3 sequence (P35968 whole entry, change not shown): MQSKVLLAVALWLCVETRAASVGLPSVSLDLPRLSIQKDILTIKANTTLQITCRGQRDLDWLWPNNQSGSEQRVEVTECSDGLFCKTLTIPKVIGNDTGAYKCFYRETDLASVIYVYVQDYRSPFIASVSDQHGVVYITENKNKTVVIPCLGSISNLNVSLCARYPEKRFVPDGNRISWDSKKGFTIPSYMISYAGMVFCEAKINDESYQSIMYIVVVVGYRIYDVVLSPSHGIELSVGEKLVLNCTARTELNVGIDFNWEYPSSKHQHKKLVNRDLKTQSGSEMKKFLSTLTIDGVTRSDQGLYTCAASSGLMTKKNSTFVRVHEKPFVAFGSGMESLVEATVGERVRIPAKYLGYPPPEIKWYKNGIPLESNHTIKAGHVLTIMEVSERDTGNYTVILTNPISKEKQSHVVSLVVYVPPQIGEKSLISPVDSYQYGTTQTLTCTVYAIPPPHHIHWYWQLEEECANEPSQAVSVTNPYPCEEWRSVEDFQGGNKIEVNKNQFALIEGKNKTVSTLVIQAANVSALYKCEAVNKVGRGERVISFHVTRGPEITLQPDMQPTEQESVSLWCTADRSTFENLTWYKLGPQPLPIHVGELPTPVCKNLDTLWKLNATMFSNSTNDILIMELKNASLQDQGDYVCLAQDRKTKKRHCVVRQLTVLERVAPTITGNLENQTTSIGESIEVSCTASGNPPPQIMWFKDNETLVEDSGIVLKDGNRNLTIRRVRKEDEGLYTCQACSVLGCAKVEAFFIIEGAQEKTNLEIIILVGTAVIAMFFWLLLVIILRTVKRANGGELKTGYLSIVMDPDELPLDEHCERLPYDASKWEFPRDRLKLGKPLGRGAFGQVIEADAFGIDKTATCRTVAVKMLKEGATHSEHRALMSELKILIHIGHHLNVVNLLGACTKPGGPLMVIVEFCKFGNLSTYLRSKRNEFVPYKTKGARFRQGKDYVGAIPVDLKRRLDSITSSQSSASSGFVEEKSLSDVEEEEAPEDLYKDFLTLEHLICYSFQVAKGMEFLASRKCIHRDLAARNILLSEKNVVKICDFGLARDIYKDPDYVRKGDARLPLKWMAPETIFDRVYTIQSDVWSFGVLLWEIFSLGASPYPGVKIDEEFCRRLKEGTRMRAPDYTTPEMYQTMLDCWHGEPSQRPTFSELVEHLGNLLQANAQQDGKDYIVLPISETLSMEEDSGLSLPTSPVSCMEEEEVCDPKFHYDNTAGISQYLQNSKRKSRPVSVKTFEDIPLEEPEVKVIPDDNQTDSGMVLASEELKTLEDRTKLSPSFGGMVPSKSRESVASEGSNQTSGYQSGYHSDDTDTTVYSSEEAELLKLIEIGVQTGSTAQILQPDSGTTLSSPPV
Summary of the method: (§2)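 Proliferation read-out by Alamar Blue fluorescence (ex. 540 nm, em. 590 nm) after 4 hours, following 24 hours of compound treatment at 37° C of 20000 Ba/F3-KDR cells per well in RPMI-1640/10% FBS. Same protocol with 10 ng/ml murine IL3 serves as counterscreen.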

[6] = tested on: Ba/F3-KDR-transfected cells; experiment: Ba/F3-KDR (plus IL3) cellular proliferation assay, counterscreen with 10 ng/ml murine IL3; assay type: cell-based; details: read-out: BAF3-KDR (PLUS IL3) pIC50 (converted)
Summary of the method: as §2

[7] = plus IL3 (10 ng/ml murine IL3, counterscreen)

Compound | IC50 (FGFR1 (h)) | IC50 (FGFR2 (h)) | IC50 (FGFR4 (h)) | BAF3-FGFR1 (MIN IL3) pIC50 [1] | IC50 [2, 7] | BAF3-FGFR3 (MIN IL3) pIC50 [3] | IC50 [4, 7] | BAF3-KDR (MIN IL3) pIC50 [5] | IC50 [6, 7] | IC50 [2] | IC50 [4] | IC50 [6]
COc1ccc(Cl)c(N(Cc2ncc[nH]2)c2ccc3ncc(-c4cnn(C)c4)nc3n2)c1Cl [Compound 65] | 38.9 nM | ~11.2 nM | ~355 nM | 5.97 | > 10000 nM | 6.04 | > 10000 nM | 5.06 | > 10000 nM |  |  | 
COc1cc(OC)c(F)c(N(CCN)c2ccc3ncc(-c4cnn(C)c4)nc3n2)c1F [Compound 67] | 0.813 nM | 1.78 nM | 2.75 nM | 8.20 | > 10000 nM | 7.83 | > 10000 nM | 6.59 | > 10000 nM |  |  | 
COc1cc(OC)c(F)c(/N=c2\ccc3ncc(-c4cnn(C)c4)nc3n2CCN)c1F [Compound 68] | 0.575 nM | 1.58 nM | 2 nM | 7.86 | > 10000 nM | 7.70 | > 10000 nM | 6.07 | > 10000 nM |  |  | 
CNCCN(c1ccc2ncc(-c3cnn(C)c3)nc2n1)c1c(F)ccc(OC)c1Cl [Compound 69] | 3.02 nM | 4.27 nM | 38.9 nM | 7.06 | > 10000 nM | 6.76 | > 10000 nM | 5.13 | > 10000 nM |  |  | 
COc1cc(OC)cc(N(Cc2nc[nH]n2)c2ccc3ncc(-c4cnn(C)c4)nc3n2)c1 [Compound 71] | 1.07 nM | 1.55 nM | 1.62 nM | 7.49 |  | 7.71 |  | 6.03 |  | > 10000 nM | > 10000 nM | > 10000 nM
COc1ccc(F)c(N(Cc2ncc[nH]2)c2ccc3ncc(-c4cnn(C)c4)nc3n2)c1Cl [Compound 73] | 2.4 nM | 2.82 nM | 15.1 nM | 7.59 | > 10000 nM | 7.46 | > 10000 nM | 5.55 | > 10000 nM |  |  | 
CNCCN(c1ccc2ncc(-c3cnn(C)c3)nc2n1)c1c(Cl)c(OC)cc(OC)c1Cl [Compound 81] | 5.89 nM | 9.12 nM | 70.8 nM | 7.04 | > 10000 nM | 6.67 | > 10000 nM | 5.36 | > 10000 nM |  |  | 
CNCCN(c1ccc2ncc(-c3cnn(C)c3)nc2n1)c1c(Cl)ccc(OC)c1Cl [Compound 83] | 75.9 nM | 49 nM | 933 nM | 5.36 | > 10000 nM | ~5.66 | > 10000 nM | <5 | > 10000 nM |  |  | 
CNCCn1/c(=N/c2c(Cl)ccc(OC)c2Cl)ccc2ncc(-c3cnn(C)c3)nc21 [Compound 84] | 224 nM | 126 nM | 3550 nM | 5.15 | > 10000 nM | ~5.11 | > 10000 nM | <5 | > 10000 nM |  |  | 
COc1cc(OC)c(F)c(N(Cc2nc[nH]n2)c2ccc3ncc(-c4cnn(C)c4)nc3n2)c1F [Compound 85] | 1.02 nM | 2.04 nM | 2.24 nM | 8.28 | > 10000 nM | 8.14 | > 10000 nM | 6.43 | > 10000 nM |  |  | 
COc1cc(OC)c(F)c(N(Cc2nc[nH]n2)c2ccc3ncc(-c4cnn(C)c4)nc3n2)c1 [Compound 86] | 1.26 nM | 1.41 nM | 1.12 nM | 7.74 | > 10000 nM | ~7.90 | > 10000 nM | 6.24 | > 10000 nM |  |  | 
COc1ccc(Cl)c(/N=c2\ccc3ncc(-c4cnn(C)c4)nc3n2CC2CCC(=O)N2)c1Cl (stereo not drawn) [Compound 92] | 61.7 nM | 30.2 nM | 562 nM | <5 | > 10000 nM | ~5.61 | > 10000 nM | <5 | > 10000 nM |  |  | 
COc1cc(O)cc(N(Cc2ncc[nH]2)c2ccc3ncc(-c4cnn(C)c4)nc3n2)c1F [Compound 95] | 0.417 nM | 0.955 nM | 0.537 nM | 8.83 | 7410 nM | ~8.46 | > 9330 nM | 6.85 | > 10000 nM |  |  | 
COc1cc(OC)c(Cl)c(N(C[C@H]2CCC(=O)N2)c2ccc3ncc(-c4cnn(C)c4)nc3n2)c1Cl [Compound 97] | 5.25 nM | 6.61 nM | 26.3 nM | 6.80 | > 10000 nM | ~6.83 | > 10000 nM | 5.35 | > 10000 nM |  |  | 
COc1cc(OC)c(Cl)c(N(Cc2ncc[nH]2)c2ccc3ncc(-c4cnn(C)c4)nc3n2)c1Cl [Compound 98] | ~3.89 nM | 4.37 nM | 7.76 nM | 7.72 | > 10000 nM | 7.65 | > 10000 nM | 6.19 | > 10000 nM |  |  | 
COc1cc(OC)c(F)c(N(Cc2ncc[nH]2)c2ccc3ncc(-c4cnn(Cc5ncc[nH]5)c4)nc3n2)c1 [Compound 100] | 1.29 nM | 2.14 nM | 1.29 nM | 8.02 | > 10000 nM | 7.56 | > 10000 nM | 5.41 | > 10000 nM |  |  | 
COc1cc(O)cc(N(Cc2ncc[nH]2)c2ccc3ncc(-c4cnn(C)c4)nc3n2)c1 [Compound 103] | 0.339 nM | 0.741 nM | 0.741 nM | 8.31 | > 8510 nM | ~8.00 | > 10000 nM | 6.40 | > 10000 nM |  |  | 
COc1cc(OC)c(F)c(N(Cc2nc3c([nH]2)CCNC3)c2ccc3ncc(-c4cnn(C)c4)nc3n2)c1 [Compound 104] | 2.57 nM | 3.24 nM | 3.47 nM | 6.70 | > 10000 nM | ~6.01 | > 10000 nM | 5.10 | > 10000 nM |  |  | 
CNCCN(c1ccc2ncc(-c3cn[nH]c3)nc2n1)c1c(F)c(OC)cc(OC)c1F [Compound 106] | 1.86 nM | 2.14 nM | 4.68 nM | 7.86 | > 10000 nM | ~7.12 | > 10000 nM | 5.59 | > 10000 nM |  |  | 
COc1cc(OC)c(F)c(N(Cc2nc[nH]c2C)c2ccc3ncc(-c4cnn(C)c4)nc3n2)c1 [Compound 109] | 1.15 nM | 2.29 nM | 2.69 nM | 7.85 | > 10000 nM | ~7.65 | > 10000 nM | ~6.01 | > 10000 nM |  |  | 
COc1cc(OC)c(F)c(N(Cc2ccnn2C)c2ccc3ncc(-c4cnn(C)c4)nc3n2)c1 [Compound 113] | 2 nM | 2.19 nM | 3.31 nM | 7.19 | > 10000 nM | 6.72 | > 10000 nM | 5.33 | > 10000 nM |  |  | 
